Molecules are shown by their SMILES.

The test system of one experiment is NCI-H1155 cells. As to the kind of experiment: NSCLC cell viability, CellTiter-Glo, NCI-H1155 cells. It counts as cell-based. To be noted: Homo sapiens, NCI-H1155, 72 h, read-out: Cell viability classification (NCI-H1155). A general note: ATP-based viability assays read luminescence as a measure of living cells.
As to `O=C1CCC(N2Cc3cc(C(=O)N4Cc5c(F)ccc(OC(F)(F)F)c5C4)ccc3C2=O)C(=O)N1` (centres unmarked) [Example 185, 3-(5-(4-fluoro-7-(trifluoromethoxy)isoindoline-2-carbonyl)-1-oxoisoindolin-2-yl)piperidine-2,6-dione], the IC50 was 0.1 to 1 µM.

Still in this experiment, the particulars now being: Homo sapiens; NCI-H1155 cells, CellTiter-Glo, 72 hours of treatment; read-out: Cell viability classification (NCI-H1155).
On to `O=C1CCC(N2Cc3cc(C(=O)N4CC5(CCOCC5)C4)ccc3C2=O)C(=O)N1` (centres unmarked) [Example 186, 3-(1-oxo-5-(7-oxa-2-azaspiro[3.5]nonane-2-carbonyl)isoindolin-2-yl)piperidine-2,6-dione], for which the IC50 was over 1 µM. The same measure, in the same setting: as for `O=C1CCC(N2Cc3cc(C(=O)N4CC5(CCOC5)C4)ccc3C2=O)C(=O)N1` (centres unmarked) [Example 187, 3-(1-oxo-5-(6-oxa-2-azaspiro[3.4]octane-2-carbonyl)isoindolin-2-yl)piperidine-2,6-dione], the figure is over 1 µM; as for `O=C1CCC(N2Cc3cc(C(=O)N4CC5(COC5)C4)ccc3C2=O)C(=O)N1` (centres unmarked) [Example 188, 3-(1-oxo-5-(2-oxa-6-azaspiro[3.3]heptane-6-carbonyl)isoindolin-2-yl)piperidine-2,6-dione], over 1 µM. Still for that read-out and setting: to `O=C1CCC(N2Cc3cc(C(=O)N4CCC5(CCC(F)(F)CC5)C4)ccc3C2=O)C(=O)N1` (centres unmarked) [Example 190, 3-(5-(8,8-difluoro-2-azaspiro[4.5]decane-2-carbonyl)-1-oxoisoindolin-2-yl)piperidine-2,6-dione] belongs over 1 µM; to `O=C1CCC(N2Cc3cc(C(=O)N4CC(F)(c5cccc(F)c5)C4)ccc3C2=O)C(=O)N1` (centres unmarked) [Example 191, 3-(5-(3-fluoro-3-(3-fluorophenyl)azetidine-1-carbonyl)-1-oxoisoindolin-2-yl)piperidine-2,6-dione], 0.1 to 1 µM.

For `O=C1CCC(N2Cc3cc(C(=O)N4CC(c5ccc(F)cc5)C4)ccc3C2=O)C(=O)N1` (centres unmarked) [Example 192, 3-(5-(3-(4-fluorophenyl)azetidine-1-carbonyl)-1-oxoisoindolin-2-yl)piperidine-2,6-dione], the IC50 was in the range of 0.1 to 1 µM.

`O=C1CCC(N2Cc3cc(C(=O)N4CC(c5cccc(F)c5)C4)ccc3C2=O)C(=O)N1` (centres unmarked) [Example 193, 3-(5-(3-(3-fluorophenyl)azetidine-1-carbonyl)-1-oxoisoindolin-2-yl)piperidine-2,6-dione]: the IC50 fell in the range of 0.1 to 1 µM. In the case of `O=C1CCC(N2Cc3cc(C(=O)N4CC(c5ccccc5F)C4)ccc3C2=O)C(=O)N1` (centres unmarked) [Example 194, 3-(5-(3-(2-fluorophenyl)azetidine-1-carbonyl)-1-oxoisoindolin-2-yl)piperidine-2,6-dione], the IC50 is 0.1 to 1 µM. Still for that read-out and setting: to `O=C1CCC(c2nc3ccc(COC(=O)Nc4cc(OC(F)(F)F)ccc4F)cc3o2)C(=O)N1` (centres unmarked) [Example 212, (2-(2,6-dioxopiperidin-3-yl)benzo[d]oxazol-6-yl)methyl (2-fluoro-5-(trifluoromethoxy)phenyl)carbamate] belongs 0.1 to 1 µM; to `O=C1CCC(N2Cc3cc(C(=O)NC4CC5(C=C(c6ccc(OC(F)(F)F)cc6)C5)C4)ccc3C2=O)C(=O)N1` (centres unmarked) [Example 213, 2-(2,6-dioxopiperidin-3-yl)-1-oxo-N-(6-(4-(trifluoromethoxy)phenyl)spiro[3.3]hept-5-en-2-yl)isoindoline-5-carboxamide], 0.1 to 1 µM. As to `O=C1CCC(N2Cc3cc(C(=O)NC4CC5(C=C(c6ccc(F)cc6F)C5)C4)ccc3C2=O)C(=O)N1` (centres unmarked) [Example 214, N-(6-(2,4-difluorophenyl)spiro[3.3]hept-5-en-2-yl)-2-(2,6-dioxopiperidin-3-yl)-1-oxoisoindoline-5-carboxamide], the IC50 lay in the range of 0.1 to 1 µM.

On to `O=C1CCC(N2Cc3cc(C(=O)NC4CC5(C=C(c6ccc(F)c(F)c6)C5)C4)ccc3C2=O)C(=O)N1` (centres unmarked) [Example 215, N-(6-(3,4-difluorophenyl)spiro[3.3]hept-5-en-2-yl)-2-(2,6-dioxopiperidin-3-yl)-1-oxoisoindoline-5-carboxamide], for which the IC50 fell in the range of 0.1 to 1 µM. For `N#Cc1ccc(C2=CC3(C2)CC(NC(=O)c2ccc4c(c2)CN(C2CCC(=O)NC2=O)C4=O)C3)cc1` (centres unmarked) [Example 216, N-(6-(4-cyanophenyl)spiro[3.3]hept-5-en-2-yl)-2-(2,6-dioxopiperidin-3-yl)-1-oxoisoindoline-5-carboxamide], the IC50 was 0.1 to 1 µM. On to `O=C1CCC(c2nc3ccc(C(=O)N4CC5(CCC(F)(F)CC5)C4)cc3o2)C(=O)N1` (centres unmarked) [Example 220, 3-(6-(7,7-difluoro-2-azaspiro[3.5]nonane-2-carbonyl)benzo[d]oxazol-2-yl)piperidine-2,6-dione], for which the IC50 was over 1 µM. For `O=C1CCC(c2nc3ccc(C(=O)N4CC5(CC=C(F)CC5)C4)cc3o2)C(=O)N1` (centres unmarked) [Example 221, 3-(6-(7-fluoro-2-azaspiro[3.5]non-6-ene-2-carbonyl)benzo[d]oxazol-2-yl)piperidine-2,6-dione], the IC50 fell in the range of 0.1 to 1 µM.

For `O=C1CCC(N2Cc3cc(C(=O)N4CC5(CCC(C(F)(F)F)C5)C4)ccc3C2=O)C(=O)N1` (centres unmarked) [Example 222, 3-(1-oxo-5-(6-(trifluoromethyl)-2-azaspiro[3.4]octane-2-carbonyl)isoindolin-2-yl)piperidine-2,6-dione], the IC50 was in the range of 0.01 to 0.1 µM. For the compound `O=C1CCC(c2nc3cc(COC(=O)Nc4ccc(OC(F)(F)F)cc4F)ccc3o2)C(=O)N1` (centres unmarked) [Example 223, (2-(2,6-dioxopiperidin-3-yl)benzo[d]oxazol-5-yl)methyl (2-fluoro-4-(trifluoromethoxy)phenyl)carbamate], the IC50 fell in the range of 0.1 to 1 µM. In the case of `O=C1CCC(c2nc3cc(COC(=O)Nc4cc(Cl)ccc4F)ccc3o2)C(=O)N1` (centres unmarked) [Example 224, (2-(2,6-dioxopiperidin-3-yl)benzo[d]oxazol-5-yl)methyl (5-chloro-2-fluorophenyl)carbamate], the IC50 is 0.1 to 1 µM. With `O=C1CCC(N2Cc3cc(C(=O)NC4CC5(C4)CC(O)(c4ccc(F)cc4)C5)ccc3C2=O)C(=O)N1` (centres unmarked) [Example 225, 2-(2,6-dioxopiperidin-3-yl)-N-(6-(4-fluorophenyl)-6-hydroxyspiro[3.3]heptan-2-yl)-1-oxoisoindoline-5-carboxamide], the IC50 is over 1 µM. With `O=C1CCC(N2Cc3cc(C(=O)N4CC5(CC(c6ccc(F)c(F)c6)C5)C4)ccc3C2=O)C(=O)N1` (centres unmarked) [Example 228, 3-(5-(6-(3,4-difluorophenyl)-2-azaspiro[3.3]heptane-2-carbonyl)-1-oxoisoindolin-2-yl)piperidine-2,6-dione], the IC50 was 0.01 to 0.1 µM.

As to `O=C1CCC(N2Cc3cc(C(=O)N4CC5(CC(c6ccc(F)cc6F)C5)C4)ccc3C2=O)C(=O)N1` (centres unmarked) [Example 229, 3-(5-(6-(2,4-difluorophenyl)-2-azaspiro[3.3]heptane-2-carbonyl)-1-oxoisoindolin-2-yl)piperidine-2,6-dione], the IC50 is 0.01 to 0.1 µM. Same read-out and setting: as for `N#Cc1ccc(C2CC3(C2)CN(C(=O)c2ccc4c(c2)CN(C2CCC(=O)NC2=O)C4=O)C3)cc1` (centres unmarked) [Example 232, 4-(2-(2-(2,6-dioxopiperidin-3-yl)-1-oxoisoindoline-5-carbonyl)-2-azaspiro[3.3]heptan-6-yl)benzonitrile], the figure is 0.1 to 1 µM; as for `COc1ccc(C2CC3(C2)CN(C(=O)c2ccc4c(c2)CN(C2CCC(=O)NC2=O)C4=O)C3)cc1` (centres unmarked) [Example 233, 3-(5-(6-(4-methoxyphenyl)-2-azaspiro[3.3]heptane-2-carbonyl)-1-oxoisoindolin-2-yl)piperidine-2,6-dione], over 1 µM; as for `O=C1CCC(N2Cc3cc(C(=O)N4CC5(C=C(c6ccc(F)c(F)c6)C5)C4)ccc3C2=O)C(=O)N1` (centres unmarked) [Example 234, 3-(5-(6-(3,4-difluorophenyl)-2-azaspiro[3.3]hept-5-ene-2-carbonyl)-1-oxoisoindolin-2-yl)piperidine-2,6-dione], 0.01 to 0.1 µM. The same measure, in the same setting: to `COc1ccc(C2=CC3(C2)CN(C(=O)c2ccc4c(c2)CN(C2CCC(=O)NC2=O)C4=O)C3)cc1` (centres unmarked) [Example 237, 3-(5-(6-(4-methoxyphenyl)-2-azaspiro[3.3]hept-5-ene-2-carbonyl)-1-oxoisoindolin-2-yl)piperidine-2,6-dione] belongs over 1 µM; to `N#Cc1ccccc1C1=CC2(C1)CN(C(=O)c1ccc3c(c1)CN(C1CCC(=O)NC1=O)C3=O)C2` (centres unmarked) [Example 238, 2-(2-(2-(2,6-dioxopiperidin-3-yl)-1-oxoisoindoline-5-carbonyl)-2-azaspiro[3.3]hept-5-en-6-yl)benzonitrile], 0.1 to 1 µM. Turning to `N#Cc1ccccc1C1CC2(C1)CN(C(=O)c1ccc3c(c1)CN(C1CCC(=O)NC1=O)C3=O)C2` (centres unmarked) [Example 239, 2-(2-(2-(2,6-dioxopiperidin-3-yl)-1-oxoisoindoline-5-carbonyl)-2-azaspiro[3.3]heptan-6-yl)benzonitrile], the IC50 was 0.1 to 1 µM.

In the case of `N#Cc1ccc(C2=CC3(C2)CN(C(=O)c2ccc4c(c2)CN(C2CCC(=O)NC2=O)C4=O)C3)cc1` (centres unmarked) [Example 242, 4-(2-(2-(2,6-dioxopiperidin-3-yl)-1-oxoisoindoline-5-carbonyl)-2-azaspiro[3.3]hept-5-en-6-yl)benzonitrile], the IC50 was 0.01 to 0.1 µM. Still for that read-out and setting: to `O=C1CCC(N2Cc3cc(C(=O)N4CC5(C4)CC(O)(c4ccc(F)cc4)C5)ccc3C2=O)C(=O)N1` (centres unmarked) [Example 243, 3-(5-(6-(4-fluorophenyl)-6-hydroxy-2-azaspiro[3.3]heptane-2-carbonyl)-1-oxoisoindolin-2-yl)piperidine-2,6-dione] belongs over 1 µM. In the case of `COC1(c2ccc(F)cc2)CC2(CN(C(=O)c3ccc4c(c3)CN(C3CCC(=O)NC3=O)C4=O)C2)C1` (centres unmarked) [Example 244, 3-(5-(6-(4-fluorophenyl)-6-methoxy-2-azaspiro[3.3]heptane-2-carbonyl)-1-oxoisoindolin-2-yl)piperidine-2,6-dione], the IC50 was in the range of 0.1 to 1 µM.

With `O=C1CCC(N2Cc3cc(C(=O)N4CC5(CC(c6ccc(C(F)(F)F)c(F)c6)C5)C4)ccc3C2=O)C(=O)N1` (centres unmarked) [Example 245, 3-(5-(6-(3-fluoro-4-(trifluoromethyl)phenyl)-2-azaspiro[3.3]heptane-2-carbonyl)-1-oxoisoindolin-2-yl)piperidine-2,6-dione], the IC50 fell in the range of 0.01 to 0.1 µM.

Values taken from patent US20260285872A1, “COMPOUNDS AND METHODS FOR DEGRADING GSPT1” (priority 2023, published 2026).
